Test results published in patent publication US20090074750A1, “REGULATOR OF BASAL CELLULAR CALCIUM CONCENTRATION AND METHODS OF USE” (priority 2007, published 2009).

System: HeLa cells
Assay: YFP-Stim2 localization after thapsigargin ER Ca^2+ store depletion (confocal imaging)
Type: cell-based, human
Settings: 1 uM thapsigargin
Procedure: FIG. 3. Stim2 translocates to ER-PM junctions following ER Ca^2+ depletion. (A-C) YFP-Stim2 was expressed (˜24 hour) in HeLa (A), HUVEC, (B), and HEK293T (C) cells and confocal images were taken before and 2 minutes after 1 uM thapsigargin addition. […] HeLa cells were transfected for two days with ORAI1 siRNA and transfected for 24 hours with YFP-Stim2. Cells used in the analysis expressed YFP at 7.5 to 15 fold above background. N=10 sites.
Confocal imaging was performed using a Zeiss spinning disk confocal. Cells were imaged in extracellar buffer as described in the Ca^2+ measurements section.
We employed the YFP tagged Stim2 construct to investigate its localization and activation mechanism. Cells with submaximal YFP-Stim2 expression were selected to minimize expression artifacts. […] We observed the same YFP-Stim2 puncta formation in HeLa, Huvec, and HEK293T cell lines (FIGS. 3A-C). We then compared Stim1 and Stim2 localization by co-transfection of CFP-Stim1 and YFP-Stim2 followed by thapsigargin-induced depletion of ER Ca^2+ stores. CFP-Stim1 and YFP-Stim2 were co-localized in the same puncta that have previously been characterized as ER-PM junction sites (FIG. 3D) (Liou et al., 2005, Wu et al., 2006). […]

SMILES: C/C=C(/C)C(=O)O[C@H]1C(C)=C2[C@H]([C@@H]1OC(=O)CCCCCCC)[C@@](C)(OC(C)=O)C[C@H](OC(=O)CCC)[C@@]1(O)[C@H]2OC(=O)[C@@]1(C)O [thapsigargin]
- YFP-Stim2 translocation to PM localized puncta: rapid translocation
